Test system: CCRF-CEM
Assay: Growth inhibition of CCRF-CEM human leukemic lymphoblasts
Type: functional, cell-based

SMILES | IC50
Nc1nc(N)c2nc(CNc3ccc(C(=O)NC(CCSCNC(=O)c4ccccc4C(=O)O)C(=O)O)cc3)cnc2n1 (centres undefined) | 5 nM
Nc1nc(N)c2nc(CNc3ccc(C(=O)NC(CCCNC(=O)c4ccc(C(=O)O)cc4)C(=O)O)cc3)cnc2n1 (centres undefined) | 55 nM
Nc1nc(N)c2nc(CNc3ccc(C(=O)NC(CCCNC(=O)c4cccc(C(=O)O)c4)C(=O)O)cc3)cnc2n1 (centres undefined) | 7.5 nM
Nc1nc(N)c2nc(CNc3ccc(C(=O)NC(CCNC(=O)c4ccccc4C(=O)O)C(=O)O)cc3)cnc2n1 (centres undefined) | 5.5 nM
CCC(Cc1cnc2nc(N)nc(N)c2n1)(C(=O)OC)c1ccc(C(=O)NC(CCCNC(=O)c2ccccc2C(=O)O)C(=O)O)cc1 (centres undefined) | 54 nM
Nc1nc(N)c2nc(CNc3ccc(C(=O)NC(CSCNC(=O)c4ccccc4C(=O)O)C(=O)O)cc3)cnc2n1 (centres undefined) | 4.4 nM
Nc1nc(N)c2nc(CNc3ccc(C(=O)NC(CNC(=O)c4ccccc4C(=O)O)C(=O)O)cc3)cnc2n1 (centres undefined) | 5.1 nM
Nc1nc(N)c2nc(CNc3ccc(C(=O)N[C@@H](CCC(=O)O)C(=O)O)cc3)cnc2n1 [AMINOPTERIN] | 4.4 nM
CCC(Cc1cnc2nc(N)nc(N)c2n1)c1ccc(C(=O)N[C@@H](CCC(=O)O)C(=O)O)cc1 (some centres undefined) [EDATREXATE] | 3.3 nM

Stronger by IC50, values ahead:

IC50 | SMILES
1.2 nM | CCC(Cc1cnc2nc(N)nc(N)c2n1)c1ccc(C(=O)NC(CCCNC(=O)c2ccccc2C(=O)O)C(=O)O)cc1 (centres undefined)
0.53 nM | Nc1nc(N)c2nc(CCc3ccc(C(=O)NC(CCCNC(=O)c4ccccc4C(=O)O)C(=O)O)cc3)cnc2n1 (centres undefined)
0.63 nM | CC(Cc1cnc2nc(N)nc(N)c2n1)c1ccc(C(=O)NC(CCCNC(=O)c2ccccc2C(=O)O)C(=O)O)cc1 (centres undefined)
1.2 nM | Nc1nc(N)c2nc(CNc3ccc(C(=O)NC(CCCNC(=O)c4ccccc4C(=O)O)C(=O)O)c4ccccc34)cnc2n1 (centres undefined)
2.9 nM | Nc1nc(N)c2nc(CNc3ccc(C(=O)NC(CCCCNC(=O)c4ccccc4C(=O)O)C(=O)O)cc3)cnc2n1 (centres undefined)
